Here are results for one compound from US20220265759A1, “COMPOSITION AND METHOD FOR PROMOTING WOUND HEALING” (THE BOARD OF TRUSTEES OF THE UNIVERSITY OF ILLIOIS, priority 2019, published 2022).

SMILES strings stand for the structures. Entries after “also recorded” stand apart in the source; their conditions may differ. Peptide text beside a SMILES is read from it. * marks the point of attachment. Myristoyl = CCCCCCCCCCCCCC(=O)*

One experiment addresses T1, CaM-eNOS binding (Homo sapiens, UniProt P0DP23).
T1 construct: endogenous in cells
As to the kind of experiment: Co-IP of eNOS-CaM binding in endothelial cells. It counts as cell-based. The settings on record: pretreatment, 5-minute treatment with 500 ng/ml CCL28. The source says: (§1) Co-IP Experiments, cells or mouse wounds were collected after treatment, and lysed in 2% ODG in Tris buffer. The homogenates were further prepared for Co-IP experiments as described in the art (Chen, et al. (2018) Mol. Biol. Cell 29(10):1190-1202; Chen, et al. (2020) FASEB J. 34(4):5838-5850; Chen, et al. (2015) Ann. Rheum. Dis. 74:1898-1906).
It has been reported that calmodulin (CaM) binding to bovine eNOS occurs at residues 493-[…]-512 (SEQ ID NO:2) (Venema, et al. (1996) J. Biol. Chem. 271(11):6435-6440; Venema, et al. (1995) J. Biol. Chem. 270:14705-14711). Therefore, using Co-IP, it was assessed whether Myr-CBD7 affects eNOS-CaM binding.

The target in another experiment is T2, CCR10-eNOS interaction (Mus musculus, UniProt Q9JL21).
T2 construct: cells or mouse wounds were collected after treatment, and lysed in 2% ODG in Tris buffer; tissue Jackson Laboratory; host or cells: dorsal skin wounds of WT C57BL/6 or db/db mice
T2 sequence (Q9JL21 1-362): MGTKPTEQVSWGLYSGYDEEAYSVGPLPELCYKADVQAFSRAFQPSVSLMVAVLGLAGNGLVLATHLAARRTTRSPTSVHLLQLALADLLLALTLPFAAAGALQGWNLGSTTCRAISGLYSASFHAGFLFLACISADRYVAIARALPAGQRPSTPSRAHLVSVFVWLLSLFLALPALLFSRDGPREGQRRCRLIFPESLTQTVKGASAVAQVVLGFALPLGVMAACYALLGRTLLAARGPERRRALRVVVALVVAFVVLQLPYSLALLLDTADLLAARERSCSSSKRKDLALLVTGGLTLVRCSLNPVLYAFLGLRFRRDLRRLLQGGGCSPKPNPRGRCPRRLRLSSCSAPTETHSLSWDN
As to the kind of experiment: Co-IP of CCR10-eNOS interaction in db/db mouse wounds. The settings on record: day 12, vs Ctl-P. The experiment is classed as in vivo, db/db mice. The method, then:
as §1
Two 8 mm full thickness excisional wounds were made on the dorsal skin of diabetic db/db mice and then 50 μl of 50 μM Myr-CBD7 peptide was topically applied. […] Reduced CCR10-eNOS interaction was also observed in the mouse wounds following treatment with Myr-CBD7 peptide as determined by Co-IP (FIG. 6).

For experiment [1], the system named is CCL28, IL-6, TNF-α, IL-1β, CCR10, VEGF, IL-13, IL-4, eNOS, CD31, Flk-1, VE-cadherin. The experiment can be described thus: ELISA and real-time RT-PCR of inflammatory factors and EC markers in db/db mouse wounds. The experiment is classed as in vivo, db/db mice. The method, then: Real-Time RT-PCR. Total cellular RNA from mouse skin wounds was extracted using nucleic acid extraction reagent sold under the tradename TRIZOL®. mRNA expression of different genes was examined by real-time RT-PCR that employed a SYBR Green PCR mix. Relative gene expression was determined by the ΔΔCt method based on GAPDH levels as described previously (Chen, et al. (2013) J. Immunol. 190:5256-5266).
ELISA Measurement. Mouse skin wounds were collected, lysed, and prepared for ELISA measurement of mouse CCL28 and IL-6 according to manufacturer's instructions.
It was investigated whether topical application of Myr-CBD7 affects these factors in db/db mice known to play important roles in the healing processes. Mouse wounds on day 3 (Inflammation Phase) and day 12 (Proliferation Phase) were collected and inflammatory factor levels were determined by ELISA and real-time RT-PCR.
On day 12 after Myr-CBD7 treatment, elevated levels of eNOS/NO were observed as well as enhanced angiogenesis in mouse wounds. Furthermore, Myr-CBD7 treatment lead to elevated levels of VEGF, anti-inflammatory cytokines IL-13 and IL-4 (M2 markers), as well as EC markers eNOS, CD31, Flk-1 and VE-cadherin in mouse wounds.

For a further experiment, the system named is wound blood perfusion. The experiment can be described thus: Blood perfusion by laser speckle contrast analysis (LASCA) in db/db mouse wounds. The experiment is classed as in vivo, db/db mice. The following applies: day 7, 50 μM, vs control peptide. The method, then:
Blood Perfusion Measurement. Immediately after creation of dorsal skin wounds on db/db mice using an 8 mm punch, 50 μl of 50 μM Myr-scrambled control or Myr-CBD7 peptide in F-127 gel sold under the tradename PLURONIC® was applied topically to the wounds on db/db mice. Blood perfusion was analyzed based on motion detected below the surface of the wound using a near infrared laser based PeriCam PSI laser speckle contrast analysis system (LASCA) as described previously (Elgharably, et al. (2013) Wound Repair Regen. 21(3):473-481; Das, et al. (2016) J. Immunol. 196(12):5089-5100).
To further investigate if Myr-CBD7 promotes healing of dorsal skin wounds on db/db mice by stimulating angiogenesis, blood perfusion as detected by laser speckle contrast analysis (LASCA), was monitored.

On to `CCCCCCCCCCCCCC(=O)N[C@@H](CCCCN)C(=O)N[C@H](C(=O)N[C@@H](CO)C(=O)N[C@@H](C)C(=O)N[C@@H](CO)C(=O)N[C@@H](CC(C)C)C(=O)N[C@@H](CCSC)C(=O)O)[C@@H](C)CC` [Myr-CBD7, myr-KISASLM] (Myristoyl-KISASLM-OH), for which, at CaM-eNOS binding, the “CaM-eNOS binding (Co-IP)” value was “no effect”. In addition, the “CCR10-eNOS interaction in wounds (Co-IP)” value on CCR10-eNOS interaction was “Reduced; also recorded: disrupted”. In experiment [1] (day 3, compared to control peptide), the “level of CCR10” value is reported as “reduced”. Further, the “mRNA level of IL-6” value in experiment [1] (day 3 wounds) is on record as “reduced”. In experiment [1] (day 3 wounds, ELISA), the “protein level of CCL28” value is given as “significantly reduced”, the “protein level of IL-6” value is “significantly reduced” and the “protein level of TNF-α” value is given as “significantly reduced”. Moreover, in experiment [1] (day 12 wounds), the “level of EC marker CD31” value is “elevated”, the “level of EC marker Flk-1” value was “elevated”, the “level of EC marker VE-cadherin” value is “elevated” and the “level of EC marker eNOS” value is “elevated”. Also, in experiment [1] (day 12 wounds), the “level of IL-4” value is on record as “elevated”, the “level of IL-13” value was “elevated” and the “level of VEGF” value is recorded as “elevated”. Also, the blood perfusion result in the experiment with wound blood perfusion was “significantly increased”.
